One may read the AC50 as the concentration at which the activity in the assay is half-maximal. By IC50 is commonly meant the midpoint of a concentration-inhibition curve.

Seven compounds from ChEMBL document CHEMBL1201862, “PubChem BioAssay data set” (2004) can be followed below.

Assay [1] in a line: cytotoxicity in melanoma parental cells – cell-based, CellTiter-Glo, dry powder, set 6, MITF inhibitor project, dose response (AID 624429). The class given is functional. The settings on record: SK-MEL-5. (Cellular ATP, detected with luciferase, serves as a proxy for viable cell number.)
Assay [2] can be described thus: growth inhibition of SK-MEL-5 melanoma cells – cell-based, CellTiter-Glo luminescence, dry powder, set 8, orthogonal assay for MITF inhibitor project, dose response (AID 651586). The format is functional.
Assay [3] in a line: MITF Measured in Cell-Based System Using Plate Reader - 2084-01_Inhibitor_Dose_DryPowder_Activity_Set6. The class given is functional.
The nature of assay [4]: inhibitors of TRPM1-promoter reporter in SK-MEL-5 – cell-based, luciferase, dry powder, set 9, MITF inhibitor project, dose response (AID 651588). The format is functional.
Assay [5] is described as follows: growth inhibition of MALME3 cells – cell-based, CellTiter-Glo luminescence, dry powder, set 5, orthogonal assay for MITF inhibitor project, dose response (AID 651584). The format is functional. The settings on record: MALME-3.
Assay [6] is described as follows: cytotoxicity in MITF-independent A375 cells – cell-based, CellTiter-Glo luminescence, dry powder, set 4, counter-screen for MITF inhibitor project, dose response (AID 624364).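 Also: A375 melanoma cells are MITF independent so this is a counter screen.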 The class given is functional. The following applies: A-375.
Assay [7] is described as follows: MITF Orthogonal Assay: SK-MEL-5 CTG Assay Measured in Cell-Based System Using Plate Reader - 2084-02_Inhibitor_Dose_DryPowder_Activity_Set5. The class given is functional.
A short description of assay [8]: MITF Orthogonal Assay: MALME3 CTG Assay Measured in Cell-Based System Using Plate Reader - 2084-04_Inhibitor_Dose_DryPowder_Activity_Set6. The class given is functional. The settings on record: MALME-3.
A short description of assay [9]: viability loss in MITF-independent A375 cells – cell-based, CellTiter-Glo luminescence, dry powder, set 6, counter-screen for MITF inhibitor project, dose response (AID 624488). The class given is functional. The settings on record: A-375.
A short description of assay [10]: melanocyte viability loss, MITF-dependent cells, cell-based, plate reader, dry powder, cytotoxicity control, dose response (AID 651920). The class given is functional.
A short description of assay [11]: MITF Measured in Cell-Based System Using Plate Reader - 2084-01_Inhibitor_Dose_DryPowder_Activity_Set7. The format is functional.
Assay [12] addresses NAD-dependent protein deacylase sirtuin-5, mitochondrial (Homo sapiens, UniProt Q9NXA8). Description: blockers of sirtuin-5 peptide desuccinylation – biochemical, fluorescence imaging, cherry-pick, set 6, dose response (AID 720597).
Assay [13] in a line: Trypanosoma cruzi replication inhibitors in host cells – cell-based, plate reader, dry powder samples, dose response (AID 651845). The class given is functional.
A short description of assay [14]: T. cruzi growth inhibition in host cells, dose response, cell-based, plate reader, dry powder, set 2 (AID 652275). The format is functional.
The nature of assay [15]: anti-trypanosomal activity in BESM host cells – imaging, CA-I/72 strain, bovine embryo skeletal muscle, dry powder, dose response (AID 651885). The class given is functional, cell-based.
Assay [16] in a line: Counterscreen for inhibitors of Trypanosoma brucei methionyl tRNA synthetase (MetRS): Luminescence-based cell-based high throughput dose response assay to identify compounds that are cytotoxic to Jurkat human T lymphocyte cells. The format is functional. On the technique in general: A counterscreen serves to expose hits that act by an unwanted route or on another target.
The nature of assay [17]: Late stage counterscreen for inhibitors of Trypanosoma brucei methionyl tRNA synthetase (MetRS): Luminescence-based cell-based high throughput dose response assay to identify compounds that are cytotoxic to Jurkat human T lymphocyte cells. The format is functional.
For assay [18], the target named is T1, Methionyl-tRNA synthetase, putative (Trypanosoma brucei brucei, UniProt Q38C91).
T1 sequence (Q38C91 whole entry): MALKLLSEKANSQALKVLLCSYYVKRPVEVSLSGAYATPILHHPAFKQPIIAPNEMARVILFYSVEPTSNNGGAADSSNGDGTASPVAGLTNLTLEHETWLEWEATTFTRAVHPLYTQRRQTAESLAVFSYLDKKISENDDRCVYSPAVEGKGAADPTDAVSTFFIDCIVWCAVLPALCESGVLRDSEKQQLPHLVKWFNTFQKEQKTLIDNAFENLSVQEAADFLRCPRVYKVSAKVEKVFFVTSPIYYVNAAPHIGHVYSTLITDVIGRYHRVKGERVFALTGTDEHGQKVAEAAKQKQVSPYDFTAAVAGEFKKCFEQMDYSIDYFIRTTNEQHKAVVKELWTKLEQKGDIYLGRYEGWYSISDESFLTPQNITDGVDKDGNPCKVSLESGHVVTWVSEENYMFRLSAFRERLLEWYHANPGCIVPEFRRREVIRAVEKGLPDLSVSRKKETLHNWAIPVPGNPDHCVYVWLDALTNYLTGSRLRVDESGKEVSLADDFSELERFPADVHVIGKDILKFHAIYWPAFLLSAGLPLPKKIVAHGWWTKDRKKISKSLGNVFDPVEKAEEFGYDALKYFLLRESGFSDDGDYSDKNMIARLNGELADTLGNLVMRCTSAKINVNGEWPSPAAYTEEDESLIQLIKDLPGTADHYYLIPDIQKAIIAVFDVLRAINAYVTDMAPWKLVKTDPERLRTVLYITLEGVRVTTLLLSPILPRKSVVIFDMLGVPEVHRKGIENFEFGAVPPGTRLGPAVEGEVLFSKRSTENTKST
The format is functional, Trypanosoma brucei brucei strain 927/4 GUTat10.1.

The target in assay [19] is T1, Methionyl-tRNA synthetase, putative. The format is functional, Trypanosoma brucei brucei strain 927/4 GUTat10.1. The source holds these as a separate data set.
Assay [20] addresses G-protein coupled receptor 183 (Homo sapiens, UniProt P32249). The experiment in a line: SAR confirmation of small molecule antagonists of the EBI2 receptor via a luminescent beta-arrestin assa. The class given is functional.
A short description of assay [21]: Dd2 parasite growth inhibition in erythrocytes – SYBR Green, dry powder samples, set 9, dose response (AID 1159568). The class given is functional, cell-based.
Assay [22] can be described thus: IC50 of Artemis nuclease activity blockers – biochemical, fluorescence intensity, dose response (AID 720701).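 Also: Artemis endonuclease enzyme.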 The format is functional.
A short description of assay [23]: MIN6 cell viability loss – mouse insulinoma, cytotoxicity control, dose response (AID 2122).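 Also: confirmatory high-throughput counterscreen run to flag cytotoxic compounds.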 The class given is functional.
A short description of assay [24]: decrease of insulin promoter-GFP reporter – imaging, high-content screening, mouse beta cells (AID 1628). The format is functional. The settings on record: MIN6.

Calls of active or inactive are those of the source. A value given as a limit tells only on which side of the number the result lay.

Chain of NAD-dependent protein deacylase sirtuin-5, mitochondrial (Q9NXA8 whole entry): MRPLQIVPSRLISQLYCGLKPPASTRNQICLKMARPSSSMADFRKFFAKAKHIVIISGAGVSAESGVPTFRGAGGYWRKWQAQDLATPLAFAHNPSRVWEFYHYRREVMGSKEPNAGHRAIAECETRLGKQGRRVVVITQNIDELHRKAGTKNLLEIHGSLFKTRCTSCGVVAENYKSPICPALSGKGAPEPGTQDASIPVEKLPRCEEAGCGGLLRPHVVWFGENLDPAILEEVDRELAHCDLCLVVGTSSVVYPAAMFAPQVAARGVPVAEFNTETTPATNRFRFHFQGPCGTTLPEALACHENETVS
Chain of G-protein coupled receptor 183 (P32249 whole entry): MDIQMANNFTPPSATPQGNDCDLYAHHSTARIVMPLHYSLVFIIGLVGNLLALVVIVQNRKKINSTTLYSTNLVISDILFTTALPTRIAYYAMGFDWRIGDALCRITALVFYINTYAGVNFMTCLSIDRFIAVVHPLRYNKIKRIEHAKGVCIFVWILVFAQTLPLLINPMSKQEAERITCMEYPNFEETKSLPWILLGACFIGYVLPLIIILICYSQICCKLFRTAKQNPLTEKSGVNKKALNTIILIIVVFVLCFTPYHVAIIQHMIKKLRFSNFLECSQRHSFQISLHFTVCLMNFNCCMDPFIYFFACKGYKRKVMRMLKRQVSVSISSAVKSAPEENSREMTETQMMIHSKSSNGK

On to `O=C1C(Nc2ccccc2)=C(c2ccccc2)C(=O)c2ccccc21`, for which the AC50 is 35 µM (active) in assay [1]; 29.3 µM (active) in [2]; 10.2 µM (active) in assay [3]; 28.8 µM (active) in [4]; 68.9 µM (active) in [5]; > 70 µM (inactive) in assay [6]. In addition, the half-maximal activity concentration (AC50) in assay [7] was 27.6 µM (active); in assay [8], 68.9 µM (active); in assay [9] it was > 70 µM (inactive); in [10], > 70 µM (inactive); in assay [11], 8.71 µM (active).

For `COc1ccc(NC(=O)N2C[C@H](O)COC[C@@H]3O[C@@H](CC(=O)N4CCCCC4)CC[C@H]32)cc1`, the AC50 in [12] is 26.1 µM (active).

For the compound `CC(C)N1C[C@H](C)[C@@H](CN(C)Cc2cccc(Cl)c2)Oc2c(NC(=O)c3ccncc3)cccc2C1=O`, the AC50 in assay [13] and in [14] was 0.00208 µM (active) throughout. Moreover, the IC50 in assay [15] was 0.00102 µM (active).

As to `O=C(NNC(=O)c1ccc(-n2cncn2)c([N+](=O)[O-])c1)c1ccc(Cl)cc1`, the IC50 in assay [16] is 83.2 µM (inactive); in assay [17] it was > 83.3 µM (inactive); in [18] it was 4.43 µM (active); in assay [19], 2.72 µM (active).

As for `Cc1ccc(S(=O)(=O)N2CCN(C(=O)/C=C/c3ccc(F)cc3)CC2)cc1`, the half-maximal inhibitory concentration (IC50) in assay [20] is 0.00767 µM (active).

Turning to `COc1ccc2c3c(n(C)c2c1)[C@@H](CO)N(Cc1ccc2c(c1)OCO2)CC31CN(C(=O)c2ccc3c(c2)OCO3)C1`, the AC50 in assay [21] is 1.21 µM (active).

On to `COCCNc1nc(-n2nc(C)cc2C)nc2sc3c(c12)CCCC3`, for which the IC50 in assay [22] is 11.7 µM (active); in [23] it was 2.1 µM (active); in assay [24] it was 2.54 µM (active).
